Data taken from publication PMC10765126, “High-throughput computational screening and in vitro evaluation identifies 5-(4-oxo-4H-3,1-benzoxazin-2-yl)-2-[3-(4-oxo-4H-3,1-benzoxazin-2-yl) phenyl]-1H-isoindole-1,3(2H)-dione (C3), as a novel EGFR—HER2 dual inhibitor in gastric tumors” (Oncology Research, 2023).

Key:
HER2 = target: T1, HER2 (Homo sapiens, UniProt P04626); assay: luminescence kinase assay (Kinase-Glo Max, BPS Bioscience HER2 kit, […] ATP); format: biochemical
T1 construct: gene ERBB2
T1 sequence (P04626 23-1255): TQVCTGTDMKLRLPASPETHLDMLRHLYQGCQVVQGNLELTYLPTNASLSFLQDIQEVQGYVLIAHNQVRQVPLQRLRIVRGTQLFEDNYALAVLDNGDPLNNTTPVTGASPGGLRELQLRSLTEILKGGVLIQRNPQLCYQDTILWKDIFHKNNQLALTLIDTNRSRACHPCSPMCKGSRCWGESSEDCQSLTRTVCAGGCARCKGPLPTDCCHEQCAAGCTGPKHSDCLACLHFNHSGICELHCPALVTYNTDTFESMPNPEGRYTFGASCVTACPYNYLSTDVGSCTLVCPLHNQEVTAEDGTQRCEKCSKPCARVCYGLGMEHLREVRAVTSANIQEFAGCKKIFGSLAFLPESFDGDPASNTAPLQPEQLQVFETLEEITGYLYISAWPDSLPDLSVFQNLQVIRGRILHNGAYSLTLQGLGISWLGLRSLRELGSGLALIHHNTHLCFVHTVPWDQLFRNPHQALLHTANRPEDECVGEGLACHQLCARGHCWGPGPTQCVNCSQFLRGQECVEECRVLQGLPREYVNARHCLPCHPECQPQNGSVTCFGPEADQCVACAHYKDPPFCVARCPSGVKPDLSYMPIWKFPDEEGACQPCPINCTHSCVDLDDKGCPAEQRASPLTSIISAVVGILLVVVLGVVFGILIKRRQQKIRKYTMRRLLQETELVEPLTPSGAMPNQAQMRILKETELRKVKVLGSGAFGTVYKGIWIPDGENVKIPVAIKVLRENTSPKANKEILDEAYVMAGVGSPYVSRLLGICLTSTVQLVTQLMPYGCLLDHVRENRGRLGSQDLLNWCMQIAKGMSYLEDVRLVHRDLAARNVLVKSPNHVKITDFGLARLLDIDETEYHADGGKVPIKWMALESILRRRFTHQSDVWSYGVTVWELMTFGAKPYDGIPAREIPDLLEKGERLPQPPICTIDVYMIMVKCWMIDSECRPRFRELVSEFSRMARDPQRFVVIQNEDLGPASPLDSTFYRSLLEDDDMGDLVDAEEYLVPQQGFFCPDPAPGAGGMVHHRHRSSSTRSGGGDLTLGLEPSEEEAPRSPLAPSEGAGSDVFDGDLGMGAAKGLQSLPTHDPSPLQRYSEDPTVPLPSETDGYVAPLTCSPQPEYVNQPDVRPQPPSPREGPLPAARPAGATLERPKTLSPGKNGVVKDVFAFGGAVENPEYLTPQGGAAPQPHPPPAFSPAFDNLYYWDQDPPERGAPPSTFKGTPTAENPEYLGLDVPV

EGFR = EGFR (Homo sapiens, UniProt P00533, L858R/T790M); assay: luminescence kinase assay (Kinase-Glo Max, BPS Bioscience EGFR (T790M/L858R) kit, […] ATP); format: biochemical
Chain of EGFR (P00533 696-1210 T790M/L858R limits assumed): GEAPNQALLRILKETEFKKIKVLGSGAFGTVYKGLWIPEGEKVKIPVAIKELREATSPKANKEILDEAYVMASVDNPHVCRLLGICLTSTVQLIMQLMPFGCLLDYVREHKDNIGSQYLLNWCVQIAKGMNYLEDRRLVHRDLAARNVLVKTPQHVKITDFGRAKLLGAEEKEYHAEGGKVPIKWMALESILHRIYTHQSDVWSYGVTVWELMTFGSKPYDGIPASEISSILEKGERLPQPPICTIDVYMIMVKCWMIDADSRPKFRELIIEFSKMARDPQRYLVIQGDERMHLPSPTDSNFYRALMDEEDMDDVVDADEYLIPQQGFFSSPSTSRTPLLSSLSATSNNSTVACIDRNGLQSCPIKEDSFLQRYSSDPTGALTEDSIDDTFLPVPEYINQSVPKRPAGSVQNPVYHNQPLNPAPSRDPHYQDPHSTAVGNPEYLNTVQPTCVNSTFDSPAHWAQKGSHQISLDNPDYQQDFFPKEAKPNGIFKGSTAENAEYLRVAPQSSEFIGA

O=C1c2ccc(-c3nc4ccccc4c(=O)o3)cc2C(=O)N1c1cccc(-c2nc3ccccc3c(=O)o2)c1 [C3, 5-(4-oxo-4H-3,1-benzoxazin-2-yl)-2-[3-(4-oxo-4H-3,1-benzoxazin-2-yl)phenyl]-1H-isoindole-1,3(2H)-dione]
IC50 (HER2): 45.8 nM | IC50 (EGFR): 37.2 nM
